According to ChEMBL document CHEMBL1201862, “PubChem BioAssay data set” (2004):
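Cultured in 96-well plates, cells were exposed to test compound for 48 hours across five concentrations. GI50 = concentration required for 50% inhibition of growth.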 The source made the active and inactive calls. Cut-off read from the data, not from the text of the source: active = GI50 up to about 1.1 µM and inactive = higher.

Key:
Assay in all cases: growth of human tumour cells (NCI), 48 h
[1] = system: CCRF-CEM
[2] = system: LOX IMVI
[3] = system: SF-268
[4] = system: IGROV-1
[5] = system: SK-MEL-28
[6] = system: KM12
[7] = system: DU-145
[8] = system: HL-60
[9] = system: NCI-H23
[10] = system: ACHN
[11] = system: Malme-3M
[12] = system: NCI-H226
[13] = system: M14
[14] = system: MDA-MB-231
[15] = system: MCF7
[16] = system: PC-3
[17] = system: SF-295
[18] = system: SW-620
[19] = system: HT-29
[20] = system: BT-549

Measured: GI50

CC1(C)COC(c2ccc(C(=O)c3ccc(Cl)cc3)cc2)=N1
inactive: [1] > 100 µM | [2] > 100 µM | [3] > 100 µM | [4] > 100 µM | [5] > 100 µM | [6] > 100 µM | [7] > 100 µM | [8] 43.5 µM | [9] 6.95 µM | [10] > 100 µM | [11] 42.5 µM | [12] 23 µM | [13] > 100 µM | [14] > 100 µM | [15] 86.5 µM | [16] > 100 µM | [17] 65.2 µM | [18] > 100 µM | [19] > 100 µM

c1ccc2c3nnc(c2c1)SCCCSc1nnc(c2ccccc12)SCCCS3
inactive: [1] > 100 µM | [2] > 100 µM | [3] 18.9 µM | [4] 47.2 µM | [5] 44.7 µM | [6] > 100 µM | [7] 33.7 µM | [8] > 100 µM | [9] 71.1 µM | [10] 72.3 µM | [11] 34.8 µM | [12] 24.3 µM | [13] 90.8 µM | [14] 17.2 µM | [15] > 100 µM | [16] 97.7 µM | [17] 92.3 µM | [18] > 100 µM | [19] > 100 µM

C/C(=N/O)C1CC=C(S(=O)(=O)c2ccccc2)C1 (stereo unspecified)
inactive: [1] > 100 µM | [2] > 100 µM | [3] > 100 µM | [4] > 100 µM | [5] > 100 µM | [6] > 100 µM | [8] > 100 µM | [9] > 100 µM | [10] > 100 µM | [11] > 100 µM | [12] > 100 µM | [13] > 100 µM | [17] > 100 µM | [18] > 100 µM | [19] > 100 µM

Cc1cc(C)nc(NS(=O)(=O)c2ccc(NC(=O)c3cccc4c(=O)c5ccccc5[nH]c34)cc2)n1
inactive: [1] 13 µM | [2] 15.2 µM | [3] 21.8 µM | [4] 26.1 µM | [5] 18.8 µM | [6] 17 µM | [8] 16.6 µM | [9] 17 µM | [10] 21.6 µM | [11] 17.9 µM | [12] 19.1 µM | [13] 18.9 µM | [17] 19.8 µM | [18] 23.5 µM | [19] 21.3 µM

CC1(C)[C@H]2CC[C@@]13C(=O)N1C(=O)O[C@@H]([C@H]1Cl)C(Cl)(COCc1ccccc1)C(=O)OCCO[C@H]3C2 (stereo partly specified)
inactive: [1] 38.5 µM | [2] 74 µM | [3] > 100 µM | [4] > 100 µM | [5] > 100 µM | [6] 63.7 µM | [8] 35.2 µM | [9] 40.9 µM | [10] 70.6 µM | [11] 60.8 µM | [13] 69.2 µM | [15] 44.2 µM | [16] 38.2 µM | [17] 51.1 µM | [18] 66.8 µM | [20] 61.2 µM | [19] 35.6 µM

CC1(C)C(O)c2ccccc2OC1N1CCN(C2Oc3ccccc3C(O)C2(C)C)CC1 (stereo unspecified)
inactive: [1] > 100 µM | [2] > 100 µM | [3] > 100 µM | [4] > 100 µM | [5] > 100 µM | [6] > 100 µM | [7] > 100 µM | [8] > 100 µM | [9] > 100 µM | [10] > 100 µM | [11] > 100 µM | [12] > 100 µM | [13] > 100 µM | [14] > 100 µM | [15] > 100 µM | [16] > 100 µM | [17] > 100 µM | [18] > 100 µM | [19] > 100 µM

CC(C)(C)OC(=O)NC1CCCC1C(=O)C1=CCCC1 (stereo unspecified)
inactive: [1] 74.6 µM | [2] 50.6 µM | [3] > 100 µM | [4] 33.4 µM | [5] > 100 µM | [6] 92 µM | [7] > 100 µM | [8] > 100 µM | [9] 85.7 µM | [10] > 100 µM | [12] > 100 µM | [13] > 100 µM | [14] 82.8 µM | [16] > 100 µM | [18] > 100 µM | [20] > 100 µM | [19] > 100 µM

CCOC(=O)/C(=C\NC[C@@H](C)O)c1nc2ccccc2[nH]1
inactive: [2] 96.8 µM | [3] 60.7 µM | [4] 37.8 µM | [5] 57.3 µM | [6] 57.4 µM | [7] > 100 µM | [8] 20.4 µM | [9] 54.5 µM | [10] 32.4 µM | [11] > 100 µM | [13] 56 µM | [15] 60.8 µM | [17] 61.1 µM | [18] > 100 µM | [20] > 100 µM | [19] 71.3 µM

Cc1nnc2c3c(-c4ccccc4)c(-c4ccccc4)oc3nc(N(C)C)n12
inactive: [1] 29.6 µM | [2] 39.4 µM | [3] 39.5 µM | [4] 85.1 µM | [5] 72.1 µM | [6] 26.7 µM | [7] > 100 µM | [8] 22.4 µM | [9] 54.5 µM | [10] 64.6 µM | [12] 96.6 µM | [13] 61.2 µM | [14] > 100 µM | [15] 33.3 µM | [17] 37.6 µM | [18] 44.6 µM | [19] 33.2 µM

CCOP(=O)(OCC)C(Nc1ccc(Br)cc1)c1cccc([N+](=O)[O-])c1 (stereo unspecified)
inactive: [1] 17.8 µM | [2] 10.4 µM | [3] 17.7 µM | [4] 22.1 µM | [5] 15.2 µM | [6] 12.6 µM | [7] 32.8 µM | [8] 20 µM | [9] 20.7 µM | [10] 18.3 µM | [11] 18.2 µM | [12] 16.7 µM | [13] 17.1 µM | [14] 15 µM | [17] 12.9 µM | [18] 16.9 µM | [19] 16.8 µM

Nc1c(-c2nc3ccccc3s2)c2ccc([N+](=O)[O-])cc2c(=O)n1-c1cccc(C(=O)O)c1
inactive: [1] 22.8 µM | [2] 31.8 µM | [3] 35.5 µM | [5] 21.4 µM | [6] 40.6 µM | [7] 23.3 µM | [8] 18.1 µM | [9] 25.4 µM | [10] 33 µM | [12] 23 µM | [14] 17.9 µM | [16] 29.9 µM | [18] 29.1 µM | [20] 20.1 µM | [19] 86.1 µM
